Test system: βc in human eosinophils
Experiment: Tyrosine phosphorylation of βc in human eosinophils stimulated with IL-5 (immunoblot)
Assay type: cell-based
Conditions: FIG. 2
Protocol: Eosinophils were isolated from human whole blood or granulocyte leukapheresis packs obtained from Pharmacia and Upjohn Clinical Research Unit--Kalamazoo, Mich. Only blood from donors who had >5% peripheral blood eosinophils was used, while leukapheresis donors usually had 3-5% eosinophils. One unit of whole blood was divided among 50-ml polypropylene centrifuge tubes and centrifuged for 20 minutes at 300×g at room temperature (RT). The plasma was removed and 50 ml were centrifuged at 2500×g for 15 minutes at RT to remove platelets. The resulting platelet poor plasma (ppp) was diluted 1:4 in normal saline.
Immediately after purification, eosinophils were resuspended at 2×10^7 cells/ml in RPMI 1640 medium (GibcoBRL, Gaithersburg, Md.) supplemented with 1% fetal bovine serum (FBS, GibcoBRL, Gaithersburg,Md.) and incubated 2 min at 37°. Recombinant human IL-5 (Biosource, Camarillo, Calif.) diluted in PBS with 0.1% bovine serum albumin was added at 12.5 ng/ml for various times using 1×10^7 cells per data point. Tubes were placed on ice and 10 volumes of PBS with 0.1 mM sodium orthovanadate were added to each tube. Eosinophils were pelleted by centrifugation at 300×g and resuspended in 0.6 ml lysis buffer (20 mM Tris-Cl, pH 7.4, 100 mM NaCl, 10 mM sodium pyrophosphate, 2 mM EDTA, 50 mM NaF, 1 mM sodium orthovanadate, 3% Triton X-100) with protease inhibitors (10 μg/ml aprotinin, 10 μg/ml leupeptin, and 0.2 mM phenylmethylsulfonyl fluoride).
After incubation on ice for 15 min, debris was pelleted by centrifugation at 16,000×g. βc was immunoprecipitated from the lysate by rotating overnight at 4° with a 1:300 dilution of anti-βcantibody (Upstate Biotechnology, Lake Placid, N.Y.). Twenty microliters of protein A-Sepharose (Pharmacia Biotech, Uppsala, Sweden) were added to each lysate, and the incubation was continued one hour. […]

“IL-5: Recombinant human IL-5 (Biosource)” was tested, and the “time of peak tyrosine phosphorylation of βc” value (12.5 ng/ml human IL-5, 37° C.) was 5 to 10 min, the “time to tyrosine phosphorylation of βc” value (12.5 ng/ml human IL-5, 37° C.) was no more than 1 min and the “time by which dephosphorylation was evident” value (12.5 ng/ml human IL-5, continued presence) was no more than 30 min.

— US6187552A, “Method for identifying inhibitors of JAK2/cytokine receptor binding” (Pharmacia & Upjohn Company, priority 1998, dated 2001)
